Assays:
Assay type in all cases: cell-based
[1] = biological target: T1, alpha2C adrenergic receptor (Homo sapiens, UniProt P18825); test: Receptor Selection and Amplification Technology (RSAT) assay, alpha2C; details: NIH-3T3 cells, ratio of maximal effect to that of standard full agonist brimonidine (UK14304), NA = not active at concentrations less than 10 micromolar
T1 construct: expressed in transfected cells; host or cells: NIH-3T3 cells
T1 sequence (P18825 1-462): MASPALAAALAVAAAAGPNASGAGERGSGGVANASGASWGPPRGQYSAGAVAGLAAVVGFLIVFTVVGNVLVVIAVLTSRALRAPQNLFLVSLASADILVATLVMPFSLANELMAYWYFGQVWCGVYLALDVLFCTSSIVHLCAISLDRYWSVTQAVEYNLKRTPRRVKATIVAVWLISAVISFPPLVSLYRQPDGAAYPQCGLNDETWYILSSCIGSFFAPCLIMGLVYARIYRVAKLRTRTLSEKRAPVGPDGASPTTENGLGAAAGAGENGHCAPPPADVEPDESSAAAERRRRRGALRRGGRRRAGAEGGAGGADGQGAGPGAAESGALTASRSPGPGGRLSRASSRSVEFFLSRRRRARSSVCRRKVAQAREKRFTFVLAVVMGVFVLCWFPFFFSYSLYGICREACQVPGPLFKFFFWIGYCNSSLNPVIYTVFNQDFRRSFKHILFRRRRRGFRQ
Excerpt: (§1) The imidazole-2-thione compounds of Formula 1 and the novel compounds 1 through 5 are used in accordance with the present invention as agonists of alpha2 adrenergic receptors. Some compounds of Formula 1 may act as specific or selective agonists of alpha2B and/or to alpha2C adrenergic receptors, in preference over alpha2A adrenergic receptors. […] The specific or selective activity of the compounds of Formula 1 in general and of the novel compounds of the invention can be tested in an assay titled Receptor Selection and Amplification technology (RSAT) assay, which is described in the publication by Messier et. Al., 1995, Pharmacol. Toxicol. 76, pp. 308-311 (incorporated herein by reference) and is also described below. […]
(§2) The RSAT assay measures a receptor-mediated loss of contact inhibition that results in selective proliferation of receptor-containing cells in a mixed population of confluent cells. The increase in cell number is assessed with an appropriate transfected marker gene such as beta-galactosidase, the activity of which can be easily measured in a 96-well format. […]
(§3) NIH-3T3 cells are plated at a density of 2×10^6 cells in 15 cm dishes and maintained in Dulbecco's modified Eagle's medium supplemented with 10% calf serum. […] The absorbance is a measure of enzyme activity, which depends on cell number and reflects a receptor-mediated cell proliferation. […]

[2] = biological target: T2, alpha2A adrenergic receptor (Homo sapiens, UniProt P08913); test: Receptor Selection and Amplification Technology (RSAT) assay, alpha2A; details: NIH-3T3 cells, ratio of maximal effect to that of standard full agonist brimonidine (UK14304), NA = not active at concentrations less than 10 micromolar
T2 construct: expressed in transfected cells; host or cells: NIH-3T3 cells
T2 sequence (P08913 1-465): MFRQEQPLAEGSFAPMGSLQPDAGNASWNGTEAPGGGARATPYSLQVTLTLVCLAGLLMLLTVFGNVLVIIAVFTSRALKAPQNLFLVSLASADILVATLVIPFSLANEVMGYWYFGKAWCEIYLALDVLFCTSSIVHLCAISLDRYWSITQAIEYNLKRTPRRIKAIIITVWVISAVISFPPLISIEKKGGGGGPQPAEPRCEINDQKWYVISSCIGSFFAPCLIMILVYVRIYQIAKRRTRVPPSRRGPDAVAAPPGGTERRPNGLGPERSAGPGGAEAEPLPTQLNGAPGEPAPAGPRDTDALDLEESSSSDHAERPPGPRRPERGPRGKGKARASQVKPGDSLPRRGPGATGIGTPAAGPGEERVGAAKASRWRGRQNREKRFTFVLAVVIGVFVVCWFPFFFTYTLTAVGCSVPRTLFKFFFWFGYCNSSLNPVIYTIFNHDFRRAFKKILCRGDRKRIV
Excerpt: as §1, §2, §3

[3] = biological target: T3, alpha2B adrenergic receptor (Homo sapiens, UniProt P18089); test: Receptor Selection and Amplification Technology (RSAT) assay, alpha2B; details: for Intrinsic Activity Alpha 2B: RSAT, NIH-3T3 cells, ratio of maximal effect to that of standard full agonist brimonidine (UK14304), NA = not active at concentrations less than 10 micromolar; for Specificity or selectivity for alpha2B (and/or alpha2C) over alpha2A adrenergic receptors: statement in words, RSAT assay
T3 construct: expressed in transfected cells; host or cells: NIH-3T3 cells
T3 sequence (P18089 1-450): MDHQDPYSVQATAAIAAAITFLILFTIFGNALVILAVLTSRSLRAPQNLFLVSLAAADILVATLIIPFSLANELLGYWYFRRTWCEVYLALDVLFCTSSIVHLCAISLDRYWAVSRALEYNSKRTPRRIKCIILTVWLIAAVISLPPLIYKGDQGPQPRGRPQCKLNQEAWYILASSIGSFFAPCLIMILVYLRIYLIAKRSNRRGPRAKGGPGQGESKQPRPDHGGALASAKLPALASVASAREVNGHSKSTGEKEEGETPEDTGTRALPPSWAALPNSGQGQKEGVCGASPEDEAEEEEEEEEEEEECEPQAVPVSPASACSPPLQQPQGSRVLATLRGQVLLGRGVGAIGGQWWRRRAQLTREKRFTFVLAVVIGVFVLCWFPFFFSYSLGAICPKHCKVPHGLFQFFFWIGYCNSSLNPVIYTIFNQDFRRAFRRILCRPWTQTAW
Excerpt: The imidazole-2-thione compounds of Formula 1 and the novel compounds 1 through 5 are used in accordance with the present invention as agonists of alpha2 adrenergic receptors. Some compounds of Formula 1 may act as specific or selective agonists of alpha2B and/or to alpha2C adrenergic receptors, in preference over alpha2A adrenergic receptors. […] The specific or selective activity of the compounds of Formula 1 in general and of the novel compounds of the invention can be tested in an assay titled Receptor Selection and Amplification technology (RSAT) assay, which is described in the publication by Messier et. Al., 1995, Pharmacol. Toxicol. 76, pp. 308-311 (incorporated herein by reference) and is also described below. Another reference pertinent to this assay is Conklin et al. (1993) Nature 363:274-6, Receptor Selection and Amplification Technology (RSAT) assay, also incorporated herein by reference.
The RSAT assay measures a receptor-mediated loss of contact inhibition that results in selective proliferation of receptor-containing cells in a mixed population of confluent cells. The increase in cell number is assessed with an appropriate transfected marker gene such as beta-galactosidase, the activity of which can be easily measured in a 96-well format. Receptors that activate the G protein, Gq, elicit this response. Alpha2 receptors, which normally couple to Gi, activate the RSAT response when coexpressed with a hybrid Gq protein that has a Gi receptor recognition domain, called Gq/i5.
NIH-3T3 cells are plated at a density of 2×10^6 cells in 15 cm dishes and maintained in Dulbecco's modified Eagle's medium supplemented with 10% calf serum. One day later, cells are cotransfected by calcium phosphate precipitation with mammalian expression plasmids encoding p-SV-beta-galactosidase (5-10 μg), receptor (1-2 μg) and G protein (1-2 μg). 40 μg salmon sperm DNA may also be included in the transfection mixture. Fresh media is added on the following day and 1-2 days later, cells are harvested and frozen in 50 assay aliquots. Cells are thawed and 100 μl added to 100 μl aliquots of various concentrations of drugs in triplicate in 96-well dishes. Incubations continue 72-96 hr at 37° C. After washing with phosphate-buffered saline, beta-galactosidase enzyme activity is determined by adding 200 μl of the chromogenic substrate (consisting of 3.5 mM o-nitrophenyl-beta-D-galactopyranoside and 0.5% nonidet P-40 in phosphate buffered saline), incubating overnight at 30° C. and measuring optical density at 420 nm. The absorbance is a measure of enzyme activity, which depends on cell number and reflects a receptor-mediated cell proliferation. The efficacy or intrinsic activity is calculated as a ratio of the maximal effect of the drug to the maximal effect of a standard full agonist for each receptor subtype. Brimonidine, also called UK14304, the chemical structure of which is shown below, is used as the standard agonist for the alpha2A, alpha2B and alpha2C receptors.

| SMILES | Intrinsic Activity Alpha 2C [1] | Intrinsic Activity Alpha 2A [2] | Intrinsic Activity Alpha 2B [3] | Specificity or selectivity for alpha2B (and/or alpha2C) over alpha2A adrenergic receptors [3] |
| --- | --- | --- | --- | --- |
| S=c1[nH]cc(Cc2c(Cl)cccc2Cl)[nH]1 [Compound 1, 4-(2,6-dichloro-benzyl)-1,3-dihydro-imidazole-2-thione] | 1.18 | 0.74 | 1.11 |  |
| S=c1[nH]cc(Cc2ccc(Cl)cc2Cl)[nH]1 [Compound 5, 4-(2,4-dichloro-benzyl)-1,3-dihydro-imidazole-2-thione] |  |  | 0.95 | specific agonists of alpha2B agonists in preference over alpha2A and alpha2C adrenergic receptors |
| Fc1ccccc1Cc1c[nH]c(=S)[nH]1 [Compound 3, 4-(2-fluoro-benzyl)-1,3-dihydro-imidazole-2-thione] |  |  | 1.3 | specific agonists of alpha2B agonists in preference over alpha2A and alpha2C adrenergic receptors |
| Fc1ccc(Cc2c[nH]c(=S)[nH]2)cc1 [Compound 4, 4-(4-fluoro-benzyl)-1,3-dihydro-imidazole-2-thione] |  |  | 0.92 | specific agonists of alpha2B agonists in preference over alpha2A and alpha2C adrenergic receptors |
| N#Cc1ccc(-c2ccccc2Cc2c[nH]c(=S)[nH]2)cc1 [Compound 6, 2′-(2-Thioxo-2,3-dihydro-1H-imidazol-4-ylmethyl)-biphenyl-4-carbonitrile] | 0.71 |  | 0.70 |  |
| Fc1c(Cl)cccc1Cc1c[nH]c(=S)[nH]1 [Compound 2, 4-(3-chloro-2-fluoro-benzyl)-1,3-dihydro-imidazole-2-thione] |  | 0.78 | 1.05 |  |
